From a melting point compilation (Tetko et al.; mined from patent text by program, amines drawn as free bases though some values may be those of a salt)

| SMILES | melting point [°C] |
| --- | --- |
| COC(=O)c1ccc(OCCNC(=O)C2Cc3ccccc3N2S(=O)(=O)c2ccc(-c3cccc(C(F)(F)F)c3)cc2)cc1Cl (stereo not given) | 63 to 67 |
| CCC(=O)Nc1cc(C2=NCCO2)ccc1OCCCCCc1cc(C)no1 | 133 to 134 |
| CC(C)OC(=O)C1=C(COCCN2C(=O)c3ccccc3C2=O)Nc2c(C#N)cnn2C1c1cccc(F)c1F (stereo not given) | 176 to 177 |
| CC(=O)N1CCc2cc(S(=O)(=O)n3c(CCC(=O)O)cc4nc(Cl)ccc43)ccc21 | 216 |
| CCCCCS(=O)(=O)NC(=O)/C=C/c1ccc(OCC(O)COC(C)C)cc1Oc1ncc(C(F)(F)F)cc1Cl (stereo not given) | 86 to 88 |
| Cc1cc(Oc2cccc(C(=O)O)n2)n(C)n1 | 182 |
| CC(=O)c1ccc(-n2c(-c3sc(Nc4ccc(Cl)cc4)nc3-c3ccccc3)nc3ccccc3c2=O)cc1 | 218 to 220 |
| CC1(C)Cc2cc(S(=O)(=O)Cl)ccc2O1 | 75 to 77 |
| Cc1cc(F)ccc1-c1nc(OCC(CO)CO)nc2c1ccc(=O)n2-c1c(F)cccc1F | 77 to 81 |
| O=CNc1ccc(C(=O)N(CCN2CCC(C(=O)c3ccc(F)cc3)CC2)c2cccnc2)cc1 | 147 to 148 |
| CCC(=O)OCc1nc(-c2ccc(OC)c(OC)c2)c2cc(OC)c(OC)cc2c1CC | 125 to 127 |
| C[C@]1(CN2CCN(NCc3ccc(C(F)(F)F)cc3)CC2)Cn2cc([N+](=O)[O-])nc2O1 | 131 to 136 |
| Cc1cc(C=O)c2cccc(OCc3ccccc3)c2n1 | 129 |
| CCCCCC#CCOc1ccc2ccc(=O)oc2c1 | 74 to 75 |
| Cn1cnnc1C(CCl)(c1ccc(Cl)cc1)c1ccc2c(c1)c(-c1cccc(Cl)c1)cc(=O)n2C (stereo not given) | 260 |
| CCOC(=O)COc1ccc(SCc2ccc3nc(-c4ccc(C(F)(F)F)cc4)sc3c2)cc1C | 176 to 177 |
| OC1CSC(Oc2cccnc2-c2ccncc2)C(O)C1O (stereo not given) | 129 |
| Cc1c(C)c(NC(=O)CC(C)(C)C)c2c(c1C)C(=O)C(C)(C)O2 | 158 to 159 |
| Cn1c(C(=O)O)c(-c2ccc(F)cc2)c2ccn(C)c2c1=O | 155 to 157 |
| Oc1ccccc1-c1cc(Oc2ccc3cccnc3c2)ncn1 | 188 to 191 |
| COc1cc(C2C(=O)N(C)Cc3cc4c(cc32)OCCO4)cc(OC)c1OC (stereo not given) | 148 to 149 |
| COc1cc(OCC(CO)CO)c(C=O)cc1-c1cccs1 | 144 to 145 |
| COCC1COc2cc3ncnc(Nc4cc(C)cc(C)c4)c3cc2O1 (stereo not given) | 268 to 270 |
| COC(=O)CCC/C(C)=C/c1cccc2c1NCCNC2=O | 175 to 176 |
| O=C1c2ccccc2C(=O)N1CCOc1ccncc1 | 157 to 158 |

| SMILES | melting point [°C] |
| --- | --- |
| CC(=O)N1OC(C)C(=S)NC1c1ccccc1C (stereo not given) | 167 to 170 |
| CC(C)c1cccc(C(C)C)c1NC(=O)CN1CCN(CCCSc2nc3ccccc3s2)CC1 | 113 to 115 |
| Cc1nc(N)c2nc(C)n(CCOC/C=C/c3ccccc3)c2c1C | 144 to 145 |
| Cc1[nH]c2ccccc2c1CCN1CCN(NC(=O)c2ccccc2)CC1 | 130 to 133 |
| Cc1ccc(Nc2cc(C(=O)O)c(Nc3ccc(C)cc3)cc2C(=O)O)cc1 | 310 |
| O=C1CCCC2ON(Cc3ccccc3)C3C(CSC23)N1 (stereo not given) | 161 to 162 |
| CC(=O)SCC(Cc1ccccc1)C(=O)Nc1ccc(N(C)C)c(C(=O)O)c1 (stereo not given) | 168 to 169 |
| CC(=Cc1cn(-c2cccnc2)c2ccccc12)C(=O)O | 213 to 215 |
| COC(C(=O)O)c1nn(-c2ccccc2)c2c1CCC2 (stereo not given) | 106 to 107 |
| O=C1C=CC(O)(c2nc3ccccc3o2)C=C1 | 116 to 117 |
| Cc1cc(NCc2ccccc2)c([N+](=O)[O-])c(=O)[nH]1 | 246 to 247 |
| CCC(Br)C(=O)Nc1c(C)cccc1C (stereo not given) | 180 to 190 |
| c1ccc(-n2c(-c3ccc(OCCN4CCCCC4)cc3)nc3ccccc32)cc1 | 107 |
| CN1CCN(S(=O)(=O)Nc2ccc(-c3nc(-c4ccc(F)cc4)c(-c4ccncc4)[nH]3)cc2)CC1 | 74 to 76 |
| CC(C)(CO)Nc1nc(-c2cccc(C#N)c2)cs1 | 124 to 126 |
| O=C(O)Cc1ccc(-n2cc(Br)cn2)cc1 | 187 |
| COc1ccccc1-c1cc(=O)c2ccccc2o1 | 97 to 98.5 |
| CCN1C(=O)C(C)(C)C(=O)N(C)c2cc(OCCCn3c(-c4ccccc4)cc4ccccc43)ccc21 | 140 to 142 |
| C/C(C=O)=C\COc1cccc(O)c1 | 136 to 138 |
| CC(=O)Oc1ccccc1-c1ccc(C(C)=O)cc1 | 116 to 117 |
| CC(C)(C)OC(=O)NCC1CC(ON2C(=O)c3ccccc3C2=O)C1 (stereo not given) | 145 to 150 |
| OC1CSC(Oc2cc(-c3cncnc3)cnc2F)C(O)C1O (stereo not given) | 204 to 205 |
| CCn1cc(-c2cccc(C(F)(F)F)c2)c(=O)n1-c1cccc(Br)c1 | 106 |
| CCn1c(=S)c2[nH]c(C(C)C)nc2n(Cc2ccc(OC)c(OC3CCCC3)c2)c1=O | 176 to 177 |
| CSc1ccc(-c2cc(=O)nc(N)o2)cc1 | 266 to 267 |

| SMILES | melting point [°C] |
| --- | --- |
| Cc1ccc2cccc(OCc3c(Cl)ccc(N(C)C(=O)CNC(=O)C=Cc4ccc(-c5nnn[nH]5)cc4)c3Cl)c2n1 | 196 to 208 |
| CCOC(=O)Nc1ccc(OC)cc1[N+](=O)[O-] | 56 to 57 |
| O=C1C2=C(CCCC2)C(=O)N1c1cccc(O)c1 | 196 to 198 |
| O=C(CC1(c2ccc(OCc3ccc4ccccc4n3)cc2)CCCC1)NS(=O)(=O)Cc1ccccc1 | 171 |
| O=C(Nc1ccccc1Cl)c1ccccc1SSc1ccccc1C(=O)Nc1ccccc1Cl | 247 to 249 |
| CC#CCCCn1ncc2c(N)c3c(nc21)CN(CCC)C3=O | 168 to 170 |
| CC(=O)Nc1ccc(C(=O)N2CC2C#N)c(OC(C)=O)c1 (stereo not given) | 118 to 120 |
| COc1cc2c(cc1OCCN(C)C)N(C(=O)c1ccc(-c3ccc(C#N)cc3C)cc1)CC2 | 167 to 171 |
| COc1ccc(CCCCNC(=O)CCl)cc1 | 99 to 100 |
| N#Cc1ccc(-c2ccc(N3CCCNC3=O)cc2)cc1 | > 200 |
| CCC(C)C(NC(=O)OCc1ccccc1)C(=O)NC(Cc1c[nH]c2ccccc12)C(=O)OC (stereo not given) | 152 to 155 |
| COc1cccc(OCCCSCCC(=O)O)c1 | 53 to 55 |
| CC(C)(C)OC(=O)N1CCC2(Cc3cc4ccccc4n3C2)C1 (stereo not given) | 104 to 106 |
| COC(=O)C1=C(C)NC(C)=C(C(=O)O)[C@H]1c1cccc2nonc12 | 175 |
| COC(=O)C1=C(C)Nc2ccccc2NC1c1cccc(Cl)c1Cl (stereo not given) | 181 to 182 |
| c1ccc2cc3[nH]c(SCc4ncc[nH]4)nc3cc2c1 | 172 |
| O=C(Nc1ccc2ccc(Cl)nc2n1)c1cscn1 | 325 |
| O=[N+]([O-])c1sc(Nc2c(Cl)cccc2Cl)nc1Cl | 141 |
| CSc1c(C#N)c(=O)n(C)c(=O)n1C | 118 to 120 |
| O=C(Nc1ccc(F)c(C(F)(F)F)c1)N1COc2cc(Oc3cc(Cl)ncn3)ccc21 | 188 to 191 |
| Cc1cccc(CON2C(C)(C)CC(O)CC2(C)C)c1 | 66 to 67 |
| CCc1nc(C(=O)NCC(C=C(C)C(CC)[N+](=O)[O-])=NO)c[nH]1 (stereo not given) | 75 to 79 |
| CC(O)=C(C#N)C(=O)Nc1ccc(Cl)cc1 | 209 to 211 |
| CC(Cc1cccnc1)(NC(=O)OC1C2CC3CC(C2)CC1C3)C(=O)NC(CO)Cc1ccccc1 (stereo not given) | 63 to 67 |
| NC(=O)c1ccc(N[C@H]2CC[C@H](N)CC2)cc1F | 166 to 167 |

| SMILES | melting point [°C] |
| --- | --- |
| Cc1cccc(C(=O)Nc2c[nH]nc2C(=O)NCC(O)Cc2ccccc2)n1 (stereo not given) | 184 to 185 |
| COc1ccccc1C=C1CCc2c1oc1ccc(C(=O)O)cc1c2=O | 273 to 275 |
| CCCCCCNC(=O)[C@@H]1CCCN1C(=O)[C@@H](N)C(C)C | 105 to 106 |
| CC(C)c1ccc(C(=O)c2c(N)sc3c2CCN(Cc2ccccc2)C3)cc1 | 157 to 158 |
| Cc1cc(-c2ccc(C(F)(F)F)nc2)cc(-c2cccc(-c3cccc(S(N)(=O)=O)c3)c2)n1 | 227 to 232 |
| CCCn1cc(Cc2ccc(C(=O)NS(=O)(=O)c3ccccc3C)cc2OC)c2cc(CC3CCCN(C)C3=O)ccc21 (stereo not given) | 120 to 128 |
| Fc1cc(-c2cc(C(F)(F)F)n3ncc(-c4ccncc4)c3n2)ccc1C(F)(F)F | 262 |
| CCCCCCC(=O)c1ccc2c(c1)CC(=O)O2 | 64 to 67 |
| Cn1c(CC#N)ccc1C(=O)Cl | 78 to 80 |
| COc1cc2nc(N3CCN(C)CC3)n3ncnc3c2cc1OC | 194 to 196 |
| CCOC(=O)C1=C(C)NC(c2cscn2)=NC1c1ccc(F)cc1Cl (stereo not given) | 140 to 142 |
| COc1ccc(-c2cc3nccnc3[nH]2)cc1OCCO | 203 to 205 |
| O=C(Cc1ccccc1)NCCc1ccccc1 | 91 to 92 |
| CC(=O)NCc1ccc(-c2csc(NC(C)=O)n2)s1 | 251 |
| CC(Cn1c(=S)[nH]c2ccccc2c1=O)N1CCC(C(=O)c2ccc(F)cc2)CC1 (stereo not given) | 161 |
| O=[N+]([O-])c1c(OCc2ccccc2)ccnc1F | 96 to 98 |
| Cc1ccccc1C(=O)N1CCC(=O)c2ccc(Cl)cc21 | 106 to 108 |
| CN1CCc2c(c(Br)cc3nc(OCc4ccccc4)c(OCc4ccccc4)nc23)C1 | 147 |
| CCOC(=O)c1cc(=O)c2c(OCC(O)COc3cccc(C)c3)cccc2o1 (stereo not given) | 72 to 74 |
| COC(=O)CCNCc1ccc(-c2cc3ncnc(Nc4ccc5[nH]ccc5c4)c3s2)cc1 | 105 to 118 |
| O=C(N[C@H]1CC[C@H](CCN2CCC(c3cccc4c3CCO4)CC2)CC1)c1ccc(N2CCOCC2)nc1 | 228 |
| Nc1ccc(Br)cc1CO | 107 to 110 |
| CCc1cc(Cl)c(N)c(Cl)c1 | 47 to 48 |
| CN(C)C1(c2ccccc2)CCC(CNC(=O)N2CCCC(c3c[nH]c4ccc(F)cc34)C2)CC1 (stereo not given) | 98 to 101 |
| C=CC(CSCCC(F)(F)C(F)(F)C(F)(F)C(F)(F)C(F)(F)C(F)(F)F)SSc1nc2ccccc2s1 (stereo not given) | 47 to 48 |
